{"source": "patent US4698330A", "about": "“Somnogenic compositions and method of use” (President & Fellows of Harvard College, priority 1983, dated 1987)", "key": {"cats": {"system": "cats", "experiment": "Intraventricular infusion in cats, SWS, REM sleep and brain temperature", "assay_type": "in vivo, cat", "conditions": "intraventricular 200-500 pmol, four cats", "procedure": "(§1) Acetaminophen (Sigma) was dissolved in sterile pyrogen-free saline.\nEach of four cats was infused intraventricularly one or more times with AcMur-ala-igln or AcMur-ala-igln-lys (200-500 pmol). The responses were more complex than those in rabbits. […] Only after the febrile response had reached its peak did the cats start to sleep for abnormally long periods in deep stage II SWS alternating with periods of REM sleep. The SWS and temperature responses of one cat to 250 pmol of AcMur-ala-igln-lys delivered intraventricularly during 15 min prior to start of recording is shown in FIG. 3. […] A similar delay in the onset of excess SWS was noted by Garcia-Arraras (12) after infusion of natural sleep factor in cats.\nExcess SWS induced by AcMur-ala-igln-lys lasted for 3-8 hr after infusion. (A) - - - , Control=37.7 plus or minus 0.2° C. (B) - - - , Control=27 plus or minus 5%. Similar responses were observed following one or more infusions of AcMur-ala-igln or AcMur-ala-igln-lys in each of four cats."}, "rabbits [1]": {"system": "rabbits", "experiment": "Intraperitoneal injection / stomach tube administration in rabbits, sleep response", "assay_type": "in vivo, rabbit", "conditions": "two rabbits, intraperitoneal injection / stomach tube (5 mg/kg)", "procedure": "In two rabbits, sleep responses were recorded after intraperitoneal injection of AcMur-ala-igln by stomach tube (5 mg/kg)."}, "rabbits [2]": {"system": "rabbits", "experiment": "Intraventricular infusion in rabbits, EEG slow-wave sleep (SWS)", "conditions": "for % SWS, 6 hr post infusion, Expt / % SWS Expt.: hr 2-6 after infusion; for % SWS, 6 hr post infusion, Expt: mean ± SEM or range", "method": "Calibrated glass bead thermistors (Fenwall; 1.2-mm outside diameter, 50 omega/°C.) were implanted through burr holes in frontal bone: the thermistor leads were buried in a mound of dental cement that also insulated the screw electrodes and supported a 9-pin miniature electrical connector. In some experiments, the rectal temperatures were measured at intervals by using a calibrated thermistor probe; temperatures estimated from the implanted brain thermistors were generally within 0.3° C. of simultaneously recorded rectal temperature.\nNew Zealand rabbits (male, 3-5 kg) or domestic cats were adapted to the infusion cages in a temperature-controlled room (21°-2° C.) on a 12:12 light/dark cycle. Intraventricular infusions or systemic injections were carried out between 0800 and 1000 hr and were followed by 6 or more hr of recording without disturbing the animals.\n(§2) EEG, electro-oculogram, and bodily movements were recorded on Grass polygraphs. The amplitude of EEG slow waves was recorded as the rms-rectified output from a 0.5- to 4-Hz bandpass filter (Bunco Electronics, Sharon, (T); the rms component was integrated and the integral was printed on tape every 2 min, thus providing an objective measure of the product of amplitude and duration of EEG slow waves. Each record was also analyzed visually for duration of SWS in rabbits and for both SWS and REM sleep in cats. The infusion and recording systems and examples of analysis of records are described in 1, 12, 15."}, "rabbits [3]": {"system": "rabbits", "experiment": "Intravenous injection in rabbits, SWS and side effects", "method": "New Zealand rabbits (male, 3-5 kg) or domestic cats were adapted to the infusion cages in a temperature-controlled room (21°-2° C.) on a 12:12 light/dark cycle. Intraventricular infusions or systemic injections were carried out between 0800 and 1000 hr and were followed by 6 or more hr of recording without disturbing the animals. […] Indomethacin for intravenous injection was dissolved in a small amount of EtOH and diluted with 150 mM NaHCO3 to a concentration of 5 mg/ml. Acetaminophen (Sigma) was dissolved in sterile pyrogen-free saline.\nas §2\nEach value is mean ±SEM of 11 assays in eight rabbits."}, "rabbits [4]": {"system": "rabbits", "experiment": "Brain/body temperature (pyrogenic response) after intraventricular infusion in rabbits", "assay_type": "in vivo, rabbit", "conditions": "for ΔTmax, maximum increase in temperature: intraventricular, brain temperature, single rabbits, listed as AcMur--Ala--iGln", "procedure": "as §1"}, "squirrel monkey": {"system": "squirrel monkey", "conditions": "cited abstract (reference 2); cited from earlier work"}, "rabbits [5]": {"system": "rabbits", "experiment": "Antipyretic (acetaminophen, indomethacin, aspirin) with AcMur-ala-igln in rabbits, SWS and temperature", "assay_type": "in vivo", "procedure": "as §1\nFor this reason, the less toxic acetaminophen was used to suppress the pyrogenic effects of AcMur-ala-igln.\nIn FIG. 5, the symbols mean the following: , AAP alone; , AAP followed by 120 μg of AcMur-ala-igln intravanously at time zero. Each value is mean ±SEM of six assays in six rabbits. In A, the average of the individual increases (ΔT values) in rectal temperature induced by AcMur-ala-igln together with AAP is compared with that induced by AAP alone in each of six rabbits."}, "[6]": {"conditions": "much smaller doses delivered intraventricularly"}}, "note": "Where “and” joins values, the source holds several entries; their conditions need not be identical. Equal values may be shown once.", "data": [{"smiles": "CC(=O)N[C@@H]1[C@@H](O[C@H](C)C(=O)N[C@@H](C)C(=O)N[C@H](CCC(=O)O)C(N)=O)[C@H](O)[C@@H](CO)O[C@H]1O", "note": "[MDP, 2-(2-acetamido-2-desoxy-3-O-D-glucopyranosyl)-D-propionyl-L-alanyl-D-isoglutamine]", "values": [{"measurement": "REM sleep during 2-4 hr after the infusion", "setting": "cats", "result": "completely suppressed"}, {"measurement": "SWS after the initial period of sleep suppression", "setting": "cats", "result": "abnormally long period of deep SWS"}, {"measurement": "increase of SWS for 6 hr", "setting": "rabbits [1]", "result": "ca. 50%"}, {"measurement": "number of episodes of SWS having durations of 1-8 min", "setting": "rabbits [2]; hr 2 to hr 6 after administration, eight rabbits, FIG. 2", "result": "no significant effect"}, {"measurement": "number of episodes of SWS having durations greater than 8 min", "setting": "rabbits [2]; hr 2 to hr 6 after administration, eight rabbits, FIG. 2, P<0.0125", "result": "increased"}, {"measurement": "amount required to induce a comparable increase of SWS for 6 hr, relative to the natural product (factor S)", "setting": "rabbits [2]; intraventricular", "result": "roughly 10 times"}, {"measurement": "hourly percentage of SWS", "setting": "rabbits [2]; intraventricular 75-150 pmol, for 6 hr or more after the infusion, control about 40%", "result": "about 60%"}, {"measurement": "persistence of the effects", "setting": "rabbits [2]; intraventricular infusion", "result": "6 to 12", "unit": "h"}, {"measurement": "% SWS, 6 hr post infusion, Expt", "setting": "rabbits [2]; intraventricular, dose 0.01 nmol", "result": "39 ± 4", "unit": "%"}, {"measurement": "% SWS, 6 hr post infusion, Expt", "setting": "rabbits [2]; intraventricular, dose 0.05 nmol", "result": "49 ± 3", "unit": "%"}, {"measurement": "% SWS Expt.", "setting": "rabbits [2]; intraventricular, dose 75 pmol, single rabbits, listed as AcMur--Ala--iGln", "result": "55% and 43%"}, {"measurement": "% SWS, 6 hr post infusion, Expt", "setting": "rabbits [2]; intraventricular, dose 0.1 nmol", "result": "62 ± 7", "unit": "%"}, {"measurement": "% SWS Expt.", "setting": "rabbits [2]; intraventricular, dose 120 pmol, single rabbits, listed as AcMur--Ala--iGln", "result": "94% and 69%"}, {"measurement": "Amplitude of slow wave, Expt.", "setting": "rabbits [2]; intraventricular, dose 120 pmol, rms-rectified voltage of 0.5 to 4 Hz band, single rabbits, listed as AcMur--Ala--iGln", "result": "56 μV and 42 μV"}, {"measurement": "% SWS Expt.", "setting": "rabbits [2]; intraventricular, dose 125 pmol, single rabbits, listed as AcMur--Ala--iGln", "result": "38% and 60%"}, {"measurement": "% SWS, 6 hr post infusion, Expt", "setting": "rabbits [2]; intraventricular, dose 1.0 nmol", "result": "76 ± 7", "unit": "%"}, {"measurement": "% SWS, 6 hr post infusion, Expt", "setting": "rabbits [2]; intraventricular, dose 10.0 nmol", "result": "65 ± 6", "unit": "%"}, {"measurement": "deleterious effects", "setting": "rabbits [2]; [6]", "result": "did not cause deleterious effects"}, {"measurement": "duration of excess SWS", "setting": "rabbits [2]; [6]", "result": "6 to 10", "unit": "h"}, {"measurement": "time of return of sleep response to near control values", "setting": "rabbits [3]; intravenous 150-200 nmol/kg", "result": "≤ 5", "unit": "h"}, {"measurement": "time of maximum sleep response after injection", "setting": "rabbits [3]; intravenous 150-200 nmol/kg (75-100 μg), FIG. 4", "result": "about 3 hr"}, {"measurement": "side effects noted in some animals", "setting": "rabbits [3]; intravenous 150-200 nmol/kg, after 3 to 4 hr", "result": "abnormal lacrimation, nasal secretion, and inflammation"}, {"measurement": "time after which deleterious side effects occurred", "setting": "rabbits [3]; intravenous, doses sufficient to induce excess SWS and pyrexia", "result": "about 3 hr"}, {"measurement": "average ΔT", "setting": "rabbits [4]; AcMur-ala-igln alone (Table 1)", "result": "1.9±0.2", "unit": "°C"}, {"measurement": "ΔTmax, maximum increase in temperature", "setting": "rabbits [4]; dose 75 pmol", "result": "2.8 °C and 1.6 °C"}, {"measurement": "ΔTmax, maximum increase in temperature", "setting": "rabbits [4]; dose 125 pmol", "result": "1.1 °C and 1.5 °C"}, {"measurement": "effect on non-REM and REM sleep", "setting": "squirrel monkey", "result": "induces non-REM but not REM sleep"}, {"measurement": "hourly % SWS (mean ±SEM)", "setting": "rabbits [5]; AAP 10 mg/kg i.v. followed 30 min later by AcMur-ala-igln 120 μg i.v., six rabbits, FIG. 5", "result": "67±3", "unit": "%"}, {"measurement": "time after which toxic reactions developed", "setting": "rabbits [5]; AcMur-ala-igln 120 μg/kg i.v. after acetaminophen 10 mg/kg i.v.", "result": "about 4 hr"}, {"measurement": "average ΔT, rectal temperature", "setting": "rabbits [5]; AcMur-ala-igln i.v. with AAP, six rabbits", "result": "less than 0.7 °C"}]}]}
